13 compounds from patent US20120214802A1, “PYRROLIDINE COMPOUNDS WHICH INHIBIT BETA-SECRETASE ACTIVITY AND METHODS OF USE THEREOF” (priority 2009, published 2012) can be followed below.

Some results are limits rather than exact numbers.

In one data set the target is cathepsin D (Homo sapiens, UniProt P07339). In words: Inhibition of cathepsin D activity (MALDI-TOF, substrate ELDLAVEFWHDR). To be noted: substrate peptide ELDLAVEFWHDR, pH 4.1, 37 degrees C, read-out: CD Ki. Type of data set: biochemical. On the procedure: [The source words this procedure for another target and reports this target under the same test.] A substrate peptide NH3-ELDLAVEFWHDR-CO2 (SEQ ID NO.: 1) was dissolved at 2 mg/mL in 10% glacial acetic acid and diluted into 0.009M NaOH to obtain μM concentration at pH 4.1. After equilibration at 37 degrees C., the reactions were initiated by the addition of an aliquot of memapsin 2. Aliquots were removed at time intervals, and combined with an equal volume of MALDI-TOF matrix (α-hydroxycinnamic acid in acetone, 20 mg/mL) and immediately spotted in duplicate onto a stainless-steel MALDI sample plate. MALDI-TOF mass spectrometry was performed on a PE Biosystems Voyager DE. The instrument was operated at 25,000 accelerating volts in positive mode with a 150 ns delay. Ions with a mass-to-charge ratio (m/z) were detected in the range of 650-2000 atomic mass units. Data were analyzed by the Voyager Data Explorer module to obtain ion intensity data for mass species of substrates and corresponding products in a given mixture. Relative product formation was calculated as the ratio of signal intensity of the product to the sum of signal intensities of both product and the corresponding substrate. Relative product formed per unit time was obtained from non-linear regression analysis of the data representing the initial 15% formation of product using the model:
where k was the relative hydrolytic rate constant and T was time in seconds. Initial rates were expressed relative to uninhibited controls and fit to a tight-binding model of competitive inhibition as above.

The next data set addresses T1, CYP3A4 (Homo sapiens, UniProt P08684).
T1 construct: host or cells: human liver microsomes
The data set is described as follows: CYP3A4 inhibition (midazolam metabolism in human liver microsomes). Format: in vitro ADME. The conditions noted are these: substrate midazolam, read-out: CYP 3A4Ki. In outline: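 Human liver microsomes (0.1 mg/mL) with midazolam at 1.25–10 μM and compound at 0.078–10 μM, in 100 mM phosphate pH 7.4 with NADPH regeneration at 37.2 °C, sampled at 20, 30 and 40 min. 1′-Hydroxymidazolam was quantified by LC-MS/MS. Ki was obtained by Dixon plots across substrate concentrations.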

For data set [1], the target named is memapsin 2 (Homo sapiens, UniProt P56817). In words: Inhibition of memapsin 2 beta-secretase activity (fluorogenic substrate FS-2). Type of data set: biochemical. The conditions noted are these: pH 4, 37° C., read-out: M2 Ki. A digest of the protocol:
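Memapsin 2 pre-incubated with compound for 20 min at pH 4, 37° C. Reaction started with fluorogenic substrate FS-2, […], derived from Swedish-variant APP beta-secretase site; inhibition measured from fluorescence.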

The target of data set [2] is T2, memapsin 2 (Cricetulus griseus, UniProt G3IAK4).
T2 construct: endogenous in cells; host or cells: Chinese hamster ovary cells over-expressing human APP695 (London + Swedish)
T2 sequence (G3IAK4 22-501): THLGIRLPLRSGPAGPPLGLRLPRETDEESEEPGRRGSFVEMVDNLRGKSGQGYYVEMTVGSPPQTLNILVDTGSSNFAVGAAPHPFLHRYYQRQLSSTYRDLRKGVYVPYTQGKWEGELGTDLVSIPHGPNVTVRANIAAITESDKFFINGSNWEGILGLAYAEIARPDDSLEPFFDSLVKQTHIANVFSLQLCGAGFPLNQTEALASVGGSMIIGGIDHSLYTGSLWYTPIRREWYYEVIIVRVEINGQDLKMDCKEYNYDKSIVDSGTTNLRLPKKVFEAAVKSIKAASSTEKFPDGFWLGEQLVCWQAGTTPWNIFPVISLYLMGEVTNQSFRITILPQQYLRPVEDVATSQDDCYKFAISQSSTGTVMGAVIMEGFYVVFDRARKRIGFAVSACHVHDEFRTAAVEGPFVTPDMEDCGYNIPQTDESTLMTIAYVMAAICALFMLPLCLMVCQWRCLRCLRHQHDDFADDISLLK
In words: Cellular Aβ IC50 determination (Aβ40 sandwich ELISA). Type of data set: cell-based, Chinese hamster. The conditions noted are these: CHO cells over-expressing human APP695 with London and Swedish mutations, 24 h, read-out: M2 IC50. A digest of the protocol:
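CHO cells overexpressing human APP695 (London and Swedish mutations) treated 48 h post-seeding with serially diluted compounds (top near 4 μM, 0.4% DMSO), 24 h at 37° C, 5% CO2. Medium Aβ40 measured by sandwich ELISA; levels relative to control fitted to 4-parameter IC50 model.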
Background: ELISA stands for enzyme-linked immunosorbent assay.

Data set [3] in a line: Hepatic intrinsic clearance in liver microsomes. Format: in vitro ADME. The conditions noted are these: human, pH 7.4, human liver microsomes, in vitro clearance, read-out: HLM CL. On the procedure: To 500 μl of 200 mM Na^+K^+phosphate buffer (pH 7.4), 100 μl of 1 mM EDTA solution was added followed by 100 μl of 2 mg protein/ml human liver microsomes. A 10 μl aliquot of test compound (20 mM stock in 50% acetonitrile) was diluted further with 40 μl of H2O (total assay volume […]. Assay mixture is incubated for 5 minutes at 37° C. The assay was initiated by addition of 250 μl of 4 mM NADPH solution. Incubation was continued at 37° C. Separate reaction mixtures were prepared for 0, 5, 10, 20, and 30 min durations. Individual reactions were halted by addition of 150 μl of 100% acetonitrile. Internal standard (10 μl of 100 ng/ml diazepam solution) was added. Concentration of the test compound in each separate reaction was measured using LC/MS/MS and a standard curve for the test compound according to standard procedures.
The hepatic intrinsic clearance in liver microsome was determined by the following procedure described by Davies and Morris (Davies, B. and Morris, T. (19930) Physiological parameters in laboratory animals and humans. Pharm Res. 10:1093-1095) detailing the relationship of in vitro clearance to physiological parameters in animals and human subjects.
The amount of compound remaining at each time point was expressed relative to the amount present in the initial (0 min) incubation. The relationship of relative amount vs. time was used to determine the half life of the compound in the microsome assay. The concentration independent rate constant, k1, was determined from rectangular hyperbolic fit:
where T is time (in minutes), from the relationship of relative amount vs. time. Alternatively, k1 was determined from a transform of the equation, where
Conversion to in vivo clearance was obtained from the relation (Davies and Morris, 1993):
where v=velocity of metabolism, [S] is the concentration of the compound, and volumes are expressed in mL.
(Liver microsomes are vesicles of endoplasmic reticulum, rich in cytochrome P450 enzymes.)

T1 sequence (P08684 whole entry): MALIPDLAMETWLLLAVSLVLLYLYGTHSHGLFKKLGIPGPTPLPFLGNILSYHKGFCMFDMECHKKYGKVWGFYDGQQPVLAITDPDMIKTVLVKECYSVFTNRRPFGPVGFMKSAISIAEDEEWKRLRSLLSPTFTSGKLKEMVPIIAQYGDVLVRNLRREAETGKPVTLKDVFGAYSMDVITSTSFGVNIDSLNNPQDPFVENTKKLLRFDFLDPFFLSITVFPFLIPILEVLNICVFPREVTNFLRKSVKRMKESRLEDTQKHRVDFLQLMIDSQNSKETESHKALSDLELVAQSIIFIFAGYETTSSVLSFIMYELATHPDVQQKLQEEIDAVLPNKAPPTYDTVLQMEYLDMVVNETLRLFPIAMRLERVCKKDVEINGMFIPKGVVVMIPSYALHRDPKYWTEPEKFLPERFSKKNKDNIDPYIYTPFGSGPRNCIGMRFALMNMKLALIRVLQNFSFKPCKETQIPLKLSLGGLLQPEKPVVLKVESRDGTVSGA
Chain of cathepsin D (P07339 65-412, species assumed): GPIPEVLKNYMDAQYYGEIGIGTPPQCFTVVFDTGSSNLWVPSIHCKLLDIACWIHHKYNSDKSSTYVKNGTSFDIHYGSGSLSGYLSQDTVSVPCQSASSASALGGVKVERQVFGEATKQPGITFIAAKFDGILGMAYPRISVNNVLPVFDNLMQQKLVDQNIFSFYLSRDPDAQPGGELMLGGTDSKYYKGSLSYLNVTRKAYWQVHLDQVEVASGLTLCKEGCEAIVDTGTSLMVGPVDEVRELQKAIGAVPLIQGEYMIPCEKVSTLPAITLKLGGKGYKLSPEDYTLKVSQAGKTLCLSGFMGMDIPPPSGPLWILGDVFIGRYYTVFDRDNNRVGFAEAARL
Chain of memapsin 2 (Homo sapiens, UniProt P56817) (P56817 46-501): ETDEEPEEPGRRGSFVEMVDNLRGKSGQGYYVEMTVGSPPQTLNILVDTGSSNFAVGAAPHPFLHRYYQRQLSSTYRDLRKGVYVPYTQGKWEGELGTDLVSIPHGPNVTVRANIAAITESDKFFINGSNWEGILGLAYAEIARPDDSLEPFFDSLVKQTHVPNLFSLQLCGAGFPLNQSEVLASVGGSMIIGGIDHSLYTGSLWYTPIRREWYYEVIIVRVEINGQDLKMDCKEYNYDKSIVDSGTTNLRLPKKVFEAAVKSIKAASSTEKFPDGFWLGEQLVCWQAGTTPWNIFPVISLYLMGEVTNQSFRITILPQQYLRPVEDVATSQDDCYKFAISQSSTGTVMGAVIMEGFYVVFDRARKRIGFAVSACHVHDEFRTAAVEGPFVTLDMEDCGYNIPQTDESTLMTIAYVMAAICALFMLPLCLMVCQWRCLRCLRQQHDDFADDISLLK

As for `Cc1csc([C@H]2CCCN2C(=O)c2cc(C(=O)N[C@@H](Cc3ccccc3)[C@H](O)[C@H]3CCCN3)cc(-c3ncco3)c2)n1` [1-19, N-((1R,2S)-1-hydroxy-3-phenyl-1-((R)-pyrrolidin-2-yl)propan-2-yl)-3-((R)-2-(4-methylthiazol-2-yl)pyrrolidine-1-carbonyl)-5-(oxazol-2-yl)benzamide], the Ki on cathepsin D was above 0.5 µM; at CYP3A4, above 10 µM; on memapsin 2 [1], below 0.25 µM. At memapsin 2 [2], the IC50 was below 0.5 µM.

Regarding `Cc1csc([C@H]2CCCN2C(=O)c2cccc(C(=O)N[C@@H](Cc3ccccc3)[C@H](O)[C@H]3C[C@@H](OCc4ccccc4)CN3)c2)n1` [1-22, N-((1R,2S)-1-((2R,4R)-4-(benzyloxy)pyrrolidin-2-yl)-1-hydroxy-3-phenylpropan-2-yl)-3-((R)-2-(4-methylthiazol-2-yl)pyrrolidine-1-carbonyl)benzamide], the figures for the Ki at cathepsin D, on CYP3A4 and on memapsin 2 [1] were 0.3 to 0.5 µM, 1 to 5 µM and below 0.25 µM, respectively. Also, the IC50 at memapsin 2 [2] is below 0.5 µM.

Consider `Cc1csc([C@H]2CCCN2C(=O)c2cc(C(=O)N[C@@H](Cc3ccccc3)[C@H](O)[C@H]3CCCN3)cc(N(C)S(C)(=O)=O)c2)n1` [1-23, N-((1R,2S)-1-hydroxy-3-phenyl-1-((R)-pyrrolidin-2-yl)propan-2-yl)-3-(N-methylmethylsulfonamido)-5-((R)-2-(4-methylthiazol-2-yl)pyrrolidine-1-carbonyl)benzamide], for which the results for the Ki at cathepsin D, on CYP3A4 and on memapsin 2 [1] were above 0.5 µM, 5 to 10 µM and below 0.25 µM, respectively. Also, the half-maximal inhibitory concentration (IC50) on memapsin 2 [2] was below 0.5 µM.

Take `Cc1csc([C@H]2CCCN2C(=O)c2cc(C(=O)N[C@@H](Cc3ccccc3)[C@H](O)[C@H]3CCCN3)cc(-c3cccc(C(F)(F)F)c3)c2)n1` [1-43, N-((1R,2S)-1-hydroxy-3-phenyl-1-((R)-pyrrolidin-2-yl)propan-2-yl)-5-((R)-2-(4-methylthiazol-2-yl)pyrrolidine-1-carbonyl)-3′-(trifluoromethyl)biphenyl-3-carboxamide]: the Ki was above 0.5 µM at cathepsin D and below 0.25 µM at memapsin 2 [1]. The IC50 on memapsin 2 [2] is above 1 µM. The CLint scaled at 200 μM in data set [3] is below 400 mL/min/kg.

For `Cc1csc([C@H]2CCCN2C(=O)c2cccc(C(=O)N[C@@H](Cc3cc(F)cc(F)c3)[C@H](O)[C@H]3CCCN3)c2)n1` [1-44, N-((1R,2S)-3-(3,5-difluorophenyl)-1-hydroxy-1-((R)-pyrrolidin-2-yl)propan-2-yl)-3-((R)-2-(4-methylthiazol-2-yl)pyrrolidine-1-carbonyl)benzamide], the figures for the Ki on cathepsin D, at CYP3A4 and on memapsin 2 [1] were above 0.5 µM, 1 to 5 µM and below 0.25 µM, respectively. For the same compound, the IC50 at memapsin 2 [2] lay within 0.5 to 1 µM. Also, the CLint scaled at 200 μM in data set [3] is below 400 mL/min/kg.

For the compound `Cc1csc([C@H]2CCCN2C(=O)c2cc(C(=O)N[C@@H](Cc3cc(F)cc(F)c3)[C@H](O)[C@H]3CCCN3)cc(-c3ncco3)c2)n1` [1-49, N-((1R,2S)-3-(3,5-difluorophenyl)-1-hydroxy-1-((R)-pyrrolidin-2-yl)propan-2-yl)-3-((R)-2-(4-methylthiazol-2-yl)pyrrolidine-1-carbonyl)-5-(oxazol-2-yl)benzamide], the Ki at cathepsin D is below 0.3 µM; at memapsin 2 [1], below 0.25 µM. For the same compound, at memapsin 2 [2], the IC50 is below 0.5 µM.

Consider `Cc1cc(C(=O)N[C@@H](Cc2cc(F)cc(F)c2)[C@H](O)[C@H]2CCCN2)cc(C(=O)N2CCC[C@@H]2c2nc(C)cs2)c1` [1-64, N-((1R,2S)-3-(3,5-difluorophenyl)-1-hydroxy-1-((R)-pyrrolidin-2-yl)propan-2-yl)-3-methyl-5-((R)-2-(4-methylthiazol-2-yl)pyrrolidine-1-carbonyl)benzamide], for which the Ki at cathepsin D is above 0.5 µM; on memapsin 2 [1], below 0.25 µM.

In the case of `Cc1coc([C@H]2CCCN2C(=O)c2cc(C(=O)N[C@@H](Cc3cc(F)cc(F)c3)[C@H](O)[C@H]3CCCN3)cc(-c3ncco3)c2)n1` [1-69, N-((1R,2S)-3-(3,5-difluorophenyl)-1-hydroxy-1-((R)-pyrrolidin-2-yl)propan-2-yl)-3-((R)-2-(4-methyloxazol-2-yl)pyrrolidine-1-carbonyl)-5-(oxazol-2-yl)benzamide], the results for the Ki at cathepsin D and at memapsin 2 [1] were 0.3 to 0.5 µM and below 0.25 µM, respectively.

As for `C=CCO[C@H]1CN[C@@H]([C@@H](O)[C@H](Cc2ccccc2)NC(=O)c2cc(C(=O)N3CCC[C@@H]3c3nc(C)cs3)cc(-c3ncco3)c2)C1` [1-70, N-((1R,2S)-1-((2R,4R)-4-(allyloxy)pyrrolidin-2-yl)-1-hydroxy-3-phenylpropan-2-yl)-3-((R)-2-(4-methylthiazol-2-yl)pyrrolidine-1-carbonyl)-5-(oxazol-2-yl)benzamide], the Ki at cathepsin D is below 0.3 µM; at memapsin 2 [1], below 0.25 µM.

For the compound `Cc1csc([C@H]2CCCN2C(=O)c2cc(I)cc(C(=O)N[C@@H](Cc3ccccc3)[C@H](O)[C@H]3CCCN3)c2)n1` [1-71, N-((1R,2S)-1-hydroxy-3-phenyl-1-((R)-pyrrolidin-2-yl)propan-2-yl)-3-iodo-5-((R)-2-(4-methylthiazol-2-yl)pyrrolidine-1-carbonyl)benzamide], the Ki was above 0.5 µM at cathepsin D and below 0.25 µM on memapsin 2 [1].

Regarding `Cc1csc([C@H]2CCCN2C(=O)c2cccc(C(=O)N[C@@H](Cc3ccccc3)[C@H](O)[C@H]3C[C@@H](Oc4ccccc4)CN3)c2)n1` [1-74, N-((1R,2S)-1-hydroxy-1-((2R,4R)-4-phenoxypyrrolidin-2-yl)-3-phenylpropan-2-yl)-3-((R)-2-(4-methylthiazol-2-yl)pyrrolidine-1-carbonyl)benzamide], the Ki is above 0.5 µM at cathepsin D and below 0.25 µM at memapsin 2 [1].

Turning to `Cc1csc([C@H]2CCCN2C(=O)c2cc(C(=O)N[C@@H](Cc3ccccc3)[C@H](O)[C@H]3CCCN3)cc(N3CCCCS3(=O)=O)c2)n1` [1-78, N-((1R,2S)-1-hydroxy-3-phenyl-1-((R)-pyrrolidin-2-yl)propan-2-yl)-3-((R)-2-(4-methylthiazol-2-yl)pyrrolidine-1-carbonyl)-5-(thiazinanyl-S,S-dioxide)benzamide], the Ki at cathepsin D was above 0.5 µM; at memapsin 2 [1], below 0.25 µM.

For the compound `Cc1csc([C@H]2CCCN2C(=O)c2cc(C(=O)N[C@@H](Cc3ccccc3)[C@H](O)[C@H]3C[C@@H](Oc4ccccc4)CN3)cc(-c3ncco3)c2)n1` [1-79, N-((1R,2S)-1-hydroxy-1-((2R,4R)-4-phenoxypyrrolidin-2-yl)-3-phenylpropan-2-yl)-3-((R)-2-(4-methylthiazol-2-yl)pyrrolidine-1-carbonyl)-5-(oxazol-2-yl)benzamide], the Ki on cathepsin D was 0.3 to 0.5 µM; at memapsin 2 [1] it was below 0.25 µM.

For orientation: IC50 means the concentration needed to halve the response being measured.
